Assay [1] addresses human β2-adrenergic receptor (Homo sapiens, UniProt P07550). Put plainly: agonist effect on the human β2-adrenergic receptor, cellular cAMP accumulation assay (HTRF). The assay is classed as cell-based. The conditions noted are these: recombinant CHO cells; for EC50: 30 minutes at room temperature, read-out: ECso; for β2 adrenergic receptor agonist activity: summary in words. An excerpt:
We then have tested the in vitro activity of (-)-hydroxymatairesinol (two epimers; 7S,8R,8'R and 7R,8R,8'R), (-)(7S,8R,8'R)-hydroxymatairesinol, (+)-lariciresinol, (-)-secoisolariciresinol, knot-wood extracts of Picea abies and Abies alba against β2-adrenergic receptor, in a cellular based assay, according to the Table 1 below (Baker J.G. (2005), Brit. J. Pharmacol., 144: 317). Table 1: Test of the agonist effect of compounds on the human β2-adrenergic receptor
Mammalian recombinant cells (CHO cells) stably expressing human β2-adrenergic receptor were suspended in HBSS buffer (Invitrogen) complemented with 20 mM HEPES (pH 7.4) and 500 µM IBMX, then distributed in microplates at a density of 10^4 cells/well and incubated for 30 min at room temperature in the presence of HBSS (basal control), the test compound or the reference agonist. For stimulated control measurement, separate assay wells contained 100 nM isoproterenol. Following incubation, the cells were lysed and the fluorescence acceptor (D2-labeled cAMP) and fluorescence donor (anti-cAMP antibody labeled with europium cryptate) were added. After 60 min at room temperature, the fluorescence transfer was measured at λex=337 nm and λem=620 and 665 nm using a microplate reader (Rubystar, BMG). The cAMP concentration was determined by dividing the signal measured at 665 nm by that measured at 620 nm (ratio). Results are expressed as a percent of the control response to 100 nM isoproterenol. The standard reference agonist is isoproterenol, which was tested in each experiment at several concentrations to generate a concentration-response curve from which its EC50 value was calculated.
The knot-wood extract for use of the invention as well as the lignans for use of the invention were tested at a concentration of 10^-5 M. Results are presented in Figure 4, and are expressed as a percentage of control agonist response, wherein 100% corresponds to the agonist response measured when cells are treated with 0.1 µM isoproterenol.
Then, we measured the corresponding EC50. EC50 represents the half maximal effective concentration, and refers to the concentration of a compound which induces a response halfway between the baseline and maximum.
For orientation: Changes in cAMP serve as a functional read-out for many G protein-coupled receptors.

The test system of assay [2] is TNF-α. Put plainly: elastase lung injury model, TNF-α in bronchoalveolar lavage fluid (ELISA). The assay is classed as in vivo, mice. The conditions noted are these: elastase group vs control group; HMR 30 mg/kg intratracheal instillation 15 min before elastase; BAL fluid after 24 hours; p < 0.05. The procedure: (§1) Male C57B1/6 WT mice (n=35) weighing between 20 and 25 g and aged of 8 weeks were obtained from Janvier Labs (Saint Berthevin, France) and were housed in the animal facility of the laboratory, with free access to water and food, for at least 1 week before the beginning of the experimentation.
(§2) The mice were randomly divided into six groups (n = 5-6/group). At t=0, mice were submitted to intratracheal instillation with lignan of the invention (HMR with a purity of 95%, 30 mg/kg body wt dissolved in PBS containing 1% DMSO) or with PBS with 1% DMSO. At t=15 min, mice were submitted to instillation either with 30 µl of elastase (1UI diluted in PBS) or 30 µl of LPS (10 µg/ml diluted in PBS) or 30 µl of PBS containing 1% DMSO. Mice were anesthetized with 150 µl of a solution containing xylazine 10% and ketamine 10% and sacrificed after 24 hours, and the bronchoalveolar lavage (BAL) fluid was collected for subsequent analyses.
(§3) Lungs were washed twice with 1ml of PBS then centrifuged at 10,000 rpm at 4°C for 10 min, and the resulting supernatant of the BAL was aliquoted as 210 µl samples and used for TNF-α cytokine protein quantification using an ELISA kit (mouse TNF-alpha DuoSet; R&D Systems Europe, Ltd., France).
Background: ELISA stands for enzyme-linked immunosorbent assay.

Assay [3] has as its system TNF-α. Description: LPS lung injury model, TNF-α in bronchoalveolar lavage fluid (ELISA). It is filed as in vivo, mice. The conditions noted are these: LPS group vs control group; HMR 30 mg/kg intratracheal instillation 15 min before LPS; BAL fluid after 24 hours; p < 0.05. Here is the method: as §1, §2, §3
Assay [4] concerns TNF-α. Put plainly: cigarette smoke-induced lung injury model, TNF-α in bronchoalveolar lavage fluid (ELISA). The assay is classed as in vivo. The conditions noted are these: mice exposed to cigarette smoke vs non-treated mice; HMR 30 mg/kg intratracheal instillation daily for 4 days; BAL fluid at day 5; p < 0.05. The procedure:
Male C57B1/6 WT mice (n=36) weighting between 20 and 25 g and aged of 9 weeks were obtained from Janvier Labs (Saint Berthevin, France) and were housed in the animal facility of the laboratory, with free access to water and food, for at least 1 week before the beginning of the experimentation.
The mice were randomly divided into six groups (n = 6/group). Mice were submitted to intratracheal instillation with 50 µl lignan of the invention (HMR with a purity of 95%, 30 mg/kg body wt dissolved in PBS containing 5%DMSO) or with PBS with 5% DMSO daily: After 3 hours mice were exposed to ambient air (AA) or to cigarette smoke (CS; 18 cigarettes per hour) for 3 hours.
This procedure was repeated 4 days. Mice were anesthetized with 250 µl of a solution containing xylazine 10% and ketamine 10% and were sacrificed at day 5. The BAL fluid was collected for analyses.
Lungs were washed twice with 1ml of PBS then centrifuged at 10,000 rpm at 4°C for 10 min, and the resulting supernatant of the BAL was aliquoted as 210 µl samples and used for TNF-α cytokine protein quantification using an ELISA kit (mouse TNFalpha DuoSet; R&D Systems Europe, Ltd., France).

Structures are written as SMILES.

Sequence of human β2-adrenergic receptor (P07550 whole entry): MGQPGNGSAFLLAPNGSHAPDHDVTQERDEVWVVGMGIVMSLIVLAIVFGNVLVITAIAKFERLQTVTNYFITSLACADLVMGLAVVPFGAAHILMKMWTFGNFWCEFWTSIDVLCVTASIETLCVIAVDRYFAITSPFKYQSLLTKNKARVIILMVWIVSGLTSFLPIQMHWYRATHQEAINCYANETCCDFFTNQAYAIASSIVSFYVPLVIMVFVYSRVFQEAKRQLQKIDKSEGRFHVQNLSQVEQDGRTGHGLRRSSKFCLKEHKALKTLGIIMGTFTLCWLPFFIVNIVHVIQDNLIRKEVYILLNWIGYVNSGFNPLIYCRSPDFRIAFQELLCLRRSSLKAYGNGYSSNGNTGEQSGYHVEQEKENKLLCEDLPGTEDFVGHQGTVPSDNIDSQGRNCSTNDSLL

Regarding `COc1cc(C[C@H]2C(=O)OC[C@@H]2C(O)c2ccc(O)c(OC)c2)ccc1O` (mixture of isomers) [HMR, (-) hydroxymatairesinol (2 epimers: 7S,8R,8'R and 7R,8R,8'R)], the EC50 in assay [1] was found to be 350 nM. Also, the “β2 adrenergic receptor agonist activity” value in assay [1] was “strong β2 adrenergic receptor agonist activity”. The “level of TNF-α” value in assay [2] was “significantly reduced”; in assay [3], “significantly reduced”; in assay [4], “significant reduced level”.
Consider `COc1cc(CC2C(=O)OCC2C(O)c2ccc(O)c(OC)c2)ccc1O` (single isomer, unassigned; (-)) [HMR2], for which, in assay [1], the EC50 was determined as 1500 nM and the “β2 adrenergic receptor agonist activity” value is on record as “strong β2 adrenergic receptor agonist activity”.
`COc1cc(C[C@H]2CO[C@H](c3ccc(O)c(OC)c3)[C@H]2CO)ccc1O` [Lari, (+)-lariciresinol]: in assay [1], the EC50 worked out at 1700 nM and the “β2 adrenergic receptor agonist activity” value is on record as “strong β2 adrenergic receptor agonist activity”.
In the case of `COc1cc(C[C@@H](CO)[C@H](CO)Cc2ccc(O)c(OC)c2)ccc1O` [Seco, (-)-Secoisolariciresinol], in assay [1], the EC50 came out at 2500 nM and the “β2 adrenergic receptor agonist activity” value was “strong β2 adrenergic receptor agonist activity”.
